The structures appear in SMILES notation. Like-named read-outs stand apart in the source and are kept apart here.

This is an account of results in patent US20080020973A1 (priority 2004, published 2008).

The target in assay [1] is T1, vaccinia DNA topoisomerase IB (vTopo) (Vaccinia virus, UniProt P68698). The assay is described as follows: biochemical. Conditions: for remaining activity at 100 µM: 0.5 h, read-out: % vTopo activity.
The target in assay [2] is T1, vaccinia DNA topoisomerase IB (vTopo). Description: biochemical.
Setting [3] is: read-out: % Inhibition (RNAse HTS).
Setting [4] is: read-out: % Inhibition (plasmid SC release assay).

Turning to `COc1cc(C)cc2c(-c3c(O)cc(O)c4c3CC(C)NC4C)cc(-c3cc(-c4c(O)cc(O)c5c4CC(C)NC5C)c4cc(C)cc(OC)c4c3O)c(O)c12` (stereo not drawn) [NSC 661755], the inhibition at 10 µM in assay [1] (setting [3]) stood at 100%.

Take `Cc1ccc(NC(=[OH+])c2cc3ccccc3cc2O)c(C)c1.Cc1ccc(NC(=[OH+])c2cc3ccccc3cc2O)c(C)c1.[Ni]` [NSC 306698]: in assay [1] (100 µM), the “% Inhibition (RNAse HTS)” value is recorded as 100% @100 μM.

As to `O=C(O)Cc1c(O)ccc2ccccc12` [NSC 163339], the remaining activity at 100 µM in assay [1] turned out to be 48%.

On to `COc1ccc2nc3cc(Cl)ccc3c(Nc3ccc(O)c(CN4CCN(C)CC4)c3)c2c1` [NSC 130813], for which the inhibition at 100 µM in assay [1] (setting [3]) was found to be 100%.

For the compound `Oc1cc(O)c2c(c1)OC(c1ccc(O)c(O)c1)C(O)C2c1c(O)cc(O)c2c1OC(c1ccc(O)c(O)c1)C(O)C2` (stereo not drawn) [NSC 143099], the inhibition at 5 µM in assay [2] (setting [4]) was found to be 100%. Besides, in assay [1] (setting [3]), the inhibition at 1 µM came to 100%.

For `CC(C)(C)C(=O)C(C(c1ccccc1)N1CCOCC1)N1CCOCC1` (stereo not drawn) [NSC 33571], the inhibition at 100 µM in assay [1] (setting [3]) was determined as 100%.

Turning to `Cc1c/c(=N\c2ccc3c(c2)c(N)cc(C)[n+]3C)nc(N)n1C` [NSC 48223], the inhibition at 100 µM in assay [1] (setting [3]) stood at 100%.

On to `CC(=O)c1ccccc1C(=O)c1ccc(C(=O)O)c(C(=O)O)c1` [NSC 28620], for which the inhibition at 5 µM in assay [2] (setting [4]) amounted to 100%. In addition, the inhibition at 1 µM in assay [1] (setting [3]) was determined as 100%.

As for `O=C(O)CSCc1ccc(N=C=S)c(O)c1` [NSC 403376], the remaining activity at 100 µM in assay [1] amounted to 45%.

As to `Cc1cc(Cl)nc2ccc(Cc3ccc4nc(Cl)cc(C)c4c3)cc12` [NSC 109451], the “% Inhibition (RNAse HTS)” value in assay [1] (100 µM) was “Partial @100 μM”.

Turning to `O=C(O)CCc1ccc(-c2ccccc2)[nH]1` [NSC 75600], in assay [1], the remaining activity at 100 µM was 35%.

For the compound `O=C(O)c1cc2c(cc1S(=O)(=O)O)C1C(C3C2C2(Cl)C(Cl)=C(Cl)C3(Cl)C2(Cl)Cl)C2(Cl)C(Cl)=C(Cl)C1(Cl)C2(Cl)Cl` (stereo not drawn) [NSC 270718], in assay [1] (10 µM), the “% Inhibition (RNAse HTS)” value was 100% @.

Take `N#C/C(=C\Nc1ccccn1)C(=O)c1ccco1` [NSC 379552]: the remaining activity at 100 µM in assay [1] is 7%.

As to `CCCCCC(O)C1C(=O)OC(C)O/C=C/C=C/C=CC=C/C=C(/C)C(O)CC(O)CC(O)CC(O)CC(O)CC(O)CC1O` (stereo not drawn) [NSC 3364], in assay [1] (setting [3]), the inhibition at 100 µM was 100%.

Regarding `CC(CCC(=O)O)(c1cc(Br)c(O)c(Br)c1)c1cc(Br)c(O)c(Br)c1` [NSC 21588], the inhibition at 5 µM in assay [2] (setting [4]) turned out to be 100%. Further, the inhibition at 1.2 µM in assay [1] (setting [3]) was determined as 100%.

As for `Oc1c(Cl)cc(C(c2cc(Cl)c(O)c(Cl)c2)C(c2cc(Cl)c(O)c(Cl)c2)c2cc(Cl)c(O)c(Cl)c2)cc1Cl` [NSC 172033], the inhibition at 10 µM in assay [1] (setting [3]) worked out at 100%.

In the case of `C/C(=N\CC(=O)O)c1ccccc1` [NSC 125214], the remaining activity at 100 µM in assay [1] was 53%.

On to `CC1CCC2(C(=O)O)CCC3(C)C(=CCC4C5(C)CC(O)C(O)C(C)(CO)C5C(O)CC43C)C2C1C` (stereo not drawn) [NSC 88135], for which the inhibition at 100 µM in assay [1] (setting [3]) was found to be 100%.

Regarding `COP(OCc1ccccc1)Oc1cccc2c1C(=O)c1cn3c(c1C2=O)C(C)c1ccccc1C3` (stereo not drawn) [NSC 611615], in assay [1] (setting [3]), the inhibition at 100 µM came to 100%.

For `COc1ccc2c(=O)cc(-c3ccncc3)oc2c1OC` [NSC 54646], the inhibition at 10 µM in assay [1] (setting [3]) stood at 100%.

As to `Cc1cc(N)c2cc(OCCOc3ccc4nc(C)cc(N)c4c3)ccc2n1` [NSC 22907], the inhibition at 100 µM in assay [1] (setting [3]) was 100%.

Regarding `Nc1c(OCC(=O)O)ccc2cc(S(=O)(=O)O)ccc12` [NSC 16163], the inhibition at 100 µM in assay [1] (setting [3]) worked out at 100%.

As for `CCC(O)[NH+]1CC[NH+](C(O)CC)CC1.[Cl][Pt-2]([Cl])([Cl])([Cl])([Cl])[Cl]` (stereo not drawn) [NSC 295558], the “% Inhibition (RNAse HTS)” value in assay [1] (100 µM) is listed as 100% @.

Consider `CN1CCN(c2ccc3[nH]c(-c4ccc5[nH]c(-c6ccc(O)cc6)nc5c4)nc3c2)CC1` [NSC 322921], for which, in assay [1] (setting [3]), the inhibition at 100 µM is 100%.

For the compound `O=C(O)c1cc(-c2ccc(-c3ccc(-c4cc(C(=O)O)c5cc(Cl)ccc5n4)cc3)cc2)nc2ccc(Cl)cc12` [NSC 210627], the inhibition at 100 µM in assay [1] (setting [3]) stood at 100%.

Take `CC(CCC(=O)O)C1CCC2C3CCC4CC(O)CCC4(C)C3CCC12C` (stereo not drawn) [NSC 683770]: the inhibition at 100 µM in assay [1] (setting [3]) is 100%.

`Cc1ccc2nc(-c3ccc(NC(=O)c4ccc(N)cc4)c(S(=O)(=O)O)c3)sc2c1` [NSC 26699]: the inhibition at 100 µM in assay [1] (setting [3]) stood at 100%.

`COc1ccc(/C=N/c2c(O)ccc3ccccc23)cc1OC` [NSC 17061]: the “% Inhibition (RNAse HTS)” value in assay [1] (100 µM) is listed as “Partial @100 μM”.

`CNCSC(C)c1ccc(O)c(O)c1` (stereo not drawn) [NSC 39215]: in assay [1], the remaining activity at 100 µM came to 27%.

With `Cc1cc(O)c(-c2cc(O)c(C)cc2O)cc1O` [NSC 2805], the remaining activity at 100 µM in assay [1] was 30%.

As to `Nc1ncnc2nc[nH]c12.Nc1ncnc2nc[nH]c12.[Cl][Pt]([Cl])([Cl])[Cl]` [NSC 177395], the “% Inhibition (RNAse HTS)” value in assay [1] (100 µM) is on record as 100% @.

In the case of `Nc1c(S(N)(=O)=O)cc(S(N)(=O)=O)cc1S(N)(=O)=O` [NSC 25857], the inhibition at 100 µM in assay [1] (setting [3]) was determined as 100%.

As to `O=C1C=C/C(=N/c2cccc3c(/N=C4/C=CC(=O)O4)cccc23)O1` [NSC 69575], the inhibition at 100 µM in assay [1] (setting [3]) was found to be 100%.

Regarding `CN(C)Cc1cc(O)c(O)c(CN(C)C)c1` [NSC 39225], the remaining activity at 100 µM in assay [1] worked out at 52%.

Consider `COc1ccc2c3c([nH]c2c1)C1CC2C(CC(O)C(OC)C2C(=O)O)CN1CC3` (stereo not drawn) [NSC 81463], for which the “% Inhibition (RNAse HTS)” value in assay [1] (100 µM) is on record as “Partial @100 μM”.

For the compound `O=C(O)c1ccc2ccc(-c3cccc4cccc(C(=O)O)c34)cc2c1` [NSC 7810], the inhibition at 10 µM in assay [2] (setting [4]) was 100%. In assay [1] (setting [3]), the inhibition at 2.5 µM was determined as 100%.

As for `CC[C@@]1(O)C(=O)OCc2c1cc1n(c2=O)Cc2cc3ccccc3nc2-1` [NSC 100880], the “% Inhibition (RNAse HTS)” value in assay [1] (100 µM) was “Partial @100 μM”.

In the case of `O=C(O)C(O)(c1ccc(-c2ccccc2)cc1)c1ccc(-c2ccccc2)cc1` [NSC 28086], the inhibition at 5 µM in assay [2] (setting [4]) was determined as 100%. Further, in assay [1] (setting [3]), the inhibition at 1 µM amounted to 100%.

Turning to `Oc1cc(O)c2c(c1)OC(c1ccc(O)c(O)c1)C(OC1(c3cc(O)c(O)c(O)c3)Oc3cc(O)cc(O)c3C(O)C1O)C2` (stereo not drawn) [NSC 143101], the inhibition at 0.5 µM in assay [2] (setting [4]) stood at 70%; in assay [1] (setting [3]), 100%.

Take `CCC(=C(C)C)c1ccc(Oc2cccc(C(=O)O)c2)cc1` [NSC 7962]: the remaining activity at 100 µM in assay [1] was found to be 33%.

With `CN(C)CS/C(N)=N/[C@H](O)C(Cl)(Cl)Cl` [NSC 14555], the “inhibition of the relaxation reaction” value in assay [2] is given as “complete inhibition”. In addition, in assay [1], the “% vTopo activity” value turned out to be 28%.

For `O=C(O)c1cnc2c(ccc3ncc(C(=O)O)c(O)c32)c1O` [NSC 1288884], the “% Inhibition (RNAse HTS)” value in assay [1] (100 µM) is on record as “Partial @100 μM”.

Regarding `O=C(O)C1C(C(=O)Nc2ccc3c(c2)Cc2ccccc2-3)C2(Cl)C(Cl)=C(Cl)C1(Cl)C2(Cl)Cl` (stereo not drawn) [NSC 73101], the inhibition at 100 µM in assay [1] (setting [3]) stood at 100%.

With `Nc1ccc(S(=O)(=O)c2ccc(NCN3C(=O)NC(=O)C(=O)C3=O)cc2)cc1` [NSC 34238], the inhibition at 100 µM in assay [1] (setting [3]) came out at 100%.

For `Cc1cc(N)c2cc(NC(=O)Nc3ccc4nc(C)cc(N)c4c3)ccc2n1` [NSC 12155], the inhibition at 0.5 µM in assay [2] (setting [4]) was determined as 40%. The inhibition at 2.5 µM in assay [1] (setting [3]) was determined as 100%.

As for `O=[N+]([O-])/C=C/c1cc2ccccc2[nH]1` [NSC 150982], the remaining activity at 100 µM in assay [1] amounted to 54%.

Turning to `O=C1CNCCCN2CCN(CCCNCC(=O)Nc3ccc(cc3)S(=O)(=O)c3ccc(cc3)NC(=O)CNCCCN3CCN(CCCNCC(=O)Nc4ccc(cc4)S(=O)(=O)c4ccc(cc4)N1)CC3)CC2` [NSC 95609], the inhibition at 100 µM in assay [1] (setting [3]) was 100%.

With `C/C(=N\C1CCCCC1)c1ccccc1O` [NSC 120917], in assay [2], the “inhibition of the relaxation reaction” value is on record as “complete inhibition”. The remaining activity at 100 µM in assay [1] turned out to be 28%.
